Results on six molecules are retold here after paper PMC7662523, “Evaluation of Polyhedral Oligomeric Silsesquioxane Porphyrin Derivatives on Photodynamic Therapy” (Molecules, 2020).

SMILES strings stand for the structures.

A short description of data set [1]: Singlet oxygen quantum yield, indirect method with DMA as 1O2 probe in DMF. In kind it is physicochemical. The settings on record: for ΦΔ (1O2 quantum yield): DMA probe, irradiated at 515 nm, relative to TPP (ΦΔ = 0.62), n = 3. How it is done:
The ^1O2 quantum yield (ΦΔ) of the POSSP compounds in dimethyl formamide (DMF) was indirectly determined using 9,10-dimethylanthracene (DMA) as ^1O2 probe. DMA reacts with ^1O2, undergoing a 1,4-cycloaddition that is detected as a decrease in the intensity of the DMA absorption band at 379 nm.
The ^1O2 quantum yields (ΦΔ) were determined through an indirect method using dimethylanthracence (DMA) as the singlet oxygen probe. Several solutions containing DMF were air saturated and prepared with DMA (50 μM) and the POSSPs or parent porphyrins (TPP, ATPP, TAPP and compound 6) (5 μM). These solutions were covered with aluminum foil to avoid any premature quenching. Quartz cuvettes (1 cm × 1 cm) were filled with 1 mL of the solution, placed in a spectrofluorophotometer (xenon lamp, Shimadzu RF-5301 PC) and irradiated at 515 nm for 600 s. The absorbance decay of DMA was monitored at 380 nm, which was corrected from light scattering by subtracting the spectra of POSSPs. The ΦΔ was calculated using Equation (2). Φ∆,S = Φ∆,R (mSample/mRerefence) (1−10^−absReference/1−10^−absSample)(2) where Φ∆,S is the singlet oxygen quantum yield of the sample and m is the slope of the plotted data relative to the area of the emission peak against the absorption of the reference.

A short description of data set [2]: Fluorescence quantum yield, comparative method relative to TPP. Type of data set: physicochemical. The settings on record: air-saturated, excitation 520 nm, relative to TPP in benzene, n = 3. How it is done: The fluorescence quantum yields (ΦF) were determined to indirectly characterize the efficiency with which the POSSP compounds undergo intersystem crossing (ISC) from the excited state to the triplet state, an essential step in ROS generation. […] In the case of POSSPs 4 and 5, no differences in the ΦF values were observed.
The fluorescence quantum yields for air-saturated solutions (ΦF) in THF (POSSPs 1–3) or DMSO (POSSPs 4 and 5) were determined using the comparative method. TPP was used as a reference with a fluorescence quantum yield of 0.12 in benzene. The POSSPs concentrations ranged from 0.1 to 10 µM (THF) for POSSPs 1–3 and from 3 to 15 µM (DMSO) for POSSPs 4 and 5. The excitation wavelength was 520 nm and the excitation and emission slit width were 2 nm. The fluorescence quantum yields were measured according to the comparative method described by Equation (1).

Data set [3] relates to MDA-MB-231 cells. The data set can be described thus: In vitro phototoxicity, MTS assay after red light (630 nm) irradiation. In kind it is cell-based, human. The settings on record: for phototoxicity (in words): highest concentration evaluated (0.5 µM), 630 nm light; for reduction in cell proliferation: 0.5 µM, 48 h incubation, 630 nm 24.5 mW/cm2 20 min. Here is the method:
(§1) The phototoxicities of ATPP, TAPP, compound 6 and POSSPs 1–5 were tested by using the MTS assay. For this study, MDA-MB-231 cells were seeded in a 96-well plate at a density of 5 × 10^3 cells per well in 100 µL of complete media and incubated at 37 °C in 5% CO2 atmosphere for 24 h. After removing the cell culture medium, POSSPs 1–5 at different concentrations (0.01–0.5 µM) were prepared in cell media from a stock solution in DMSO with a final volume of the organic solvent not larger than 1% vol. After 48 h of incubation in the presence of POSSPs, the culture media was removed, and the cells were washed twice with phosphate buffer solution. MDA-MB-231 cells were illuminated with the red light (630 nm) at a fluence rate of 24.5 mW/cm^2 for 20 min. Control experiments were maintained in the same conditions, but in the dark for the same interval of time. After irradiation, the media was replaced by fresh media and the cells were allowed to grow for an additional 24 h. The cyto- and phototoxicities of compound 6 and POSSPs 4 and 5 were also evaluated following the above described protocol, but using concentrations ranging 0.01–100 µM.
To quantify the phototoxic or dark toxicity effects of the experiments above described, the treated MDA-MB-231 cells were subjected to cell viability assay using the CellTiter 96® Aqueous solution assay. To perform the assay, the cell media was removed, and the cells were washed once with phosphate buffer solution. Fresh media (100 µL) together with 20 µL of CellTiter 96® was added into each well and incubated for 2–3 h at 37 °C in 5% CO2 atmosphere. Cell viability (%) was calculated as follows: viability = (Asample/Acontrol) × 100%, where Asample and Acontrol denote absorbance values of the sample and control wells measured at 490 nm, respectively. The results are reported as the average ± SD of three experiments. The IC50 values were determined using GraphPad Prism (v8.1.2 for macOS, La Jolla California, CA, USA) fitting the viability data to a sigmoidal curve mathematical model.
In general terms: Tetrazolium assays rely on reduction of a dye to a coloured formazan, in cell work by metabolically active cells.

The subject of data set [4] is MDA-MB-231 cells. The data set can be described thus: Cell internalization by flow cytometry (percentage of positive cells). In kind it is cell-based, human. The settings on record: 0.5 µM, 24 h. How it is done:
Six-well plates were prepared with 1 × 10^5 MDA-MB-231 cells per well in complete RPMI media (2 mL) and incubated at 37 °C in 5% CO2 for 48 h. The media was removed from each well and media solutions of control porphyrin (ATPP) and POSSPs 1–5 (2 mL, 0.5 µM) were added to the wells. The cells were incubated at 37 °C in 5% CO2 atmosphere for 24 h. The cell media was removed from the wells, and the cells were washed with phosphate buffer solution two times. The cells were incubated for 3–5 min in the presence of trypsin (500 µL). Cells were removed and transferred to a centrifuge tube. Media (500 µL) was added to each well to remove any remaining cells and mixed with the previous solution. The cell pellet was obtained after centrifugation (2.5k RPM, 10 min). The supernatant was discarded, and phosphate buffer solution (500 µL) was added to each tube. The cell pellet was mixed and transferred to flow cytometry tubes. The cell internalization of POSSP compounds was measured as the percentage of positive cells using a flow cytometer (BD LSRFortessa).

The nature of data set [5]: Partition coefficient (log POW) from n-butanol/water measurement. In kind it is physicochemical. The note with it: n-butanol/water measured at 25 °C, converted with calibration equation. How it is done:
The log POW values of the POSSPs and controls were first measured in an n-butanol/water mixture, and then correlated with corresponding values in n-octanol/water using a calibration curve reported in the literature. Distilled water and butanol were thoroughly mixed for 24 h at 25 °C to achieve solvent saturation in both phases. Then, the porphyrin derivatives were added to the mixture and the phases separated through a separatory funnel. The UV–Vis absorbance of the compounds in water and n-butanol was recorded at 420 nm. logPBW = log[(Ab/Aw)(Vw/Vb)](3) where Ab is the absorbance of n-butanol phase; AW is the absorbance of water phase; VW is the volume of water; and Vb is the volume of n-butanol. The partition coefficient of porphyrin derivatives in n-butanol/water was obtained using Equation (3). The log POW values were calculated using Equation (4). logPOW = −0.54 + 1.55 log(PBW)(4)

Data set [6] has as its system MDA-MB-231 cells. Briefly: In vitro cytotoxicity in the absence of light, MTS assay. The note with it: concentrations 0.01–100 µM, Figure S7. In kind it is cell-based, human. Here is the method: as §1, with “MDA-MB-231 cells were illuminated with the red light (630 nm) at a fluence rate of 24.5 mW/cm^2 for 20 min. Control experiments were maintained in the same conditions, but in the dark for the same interval of time. After irradiation, the media was replaced by fresh media and the cells were allowed to grow for an additional 24 h.” left out
To quantify the phototoxic or dark toxicity effects of the experiments above described, the treated MDA-MB-231 cells were subjected to cell viability assay using the CellTiter 96® Aqueous solution assay. […] Cell viability (%) was calculated as follows: viability = (Asample/Acontrol) × 100%, where Asample and Acontrol denote absorbance values of the sample and control wells measured at 490 nm, respectively. […] The IC50 values were determined using GraphPad Prism (v8.1.2 for macOS, La Jolla California, CA, USA) fitting the viability data to a sigmoidal curve mathematical model.

The conditions of data set [7]: reference value used for calculation; cited from earlier work.
Details of data set [8]: method as in PMID 10911728. The note with it: in benzene; cited from earlier work.

For `O=C(NCCC[Si]12O[Si]3(c4ccccc4)O[Si]4(c5ccccc5)O[Si](c5ccccc5)(O1)O[Si]1(c5ccccc5)O[Si](c5ccccc5)(O2)O[Si](c2ccccc2)(O3)O[Si](c2ccccc2)(O4)O1)Nc1ccc(-c2c3nc(c(-c4ccccc4)c4ccc([nH]4)c(-c4ccccc4)c4nc(c(-c5ccccc5)c5ccc2[nH]5)C=C4)C=C3)cc1` [POSSP 2], the “ΦΔ (1O2 quantum yield)” value in data set [1] is given as 0.60 ± 0.02. For the same molecule, in data set [2] (in THF), the “ΦF (fluorescence quantum yield)” value was 0.13 ± 0.01. Besides, the “phototoxicity (in words)” value with MDA-MB-231 cells [3] is recorded as “did not show significant phototoxicity”. Further, the “internalization in cells (in words)” value in the data set with MDA-MB-231 cells [4] is “internalized in a much higher percentage than the other POSSPs”. In data set [5], the “log POW (in words)” value is listed as “positive values”.

Regarding `Nc1ccc(-c2c3nc(c(-c4ccccc4)c4ccc([nH]4)c(-c4ccccc4)c4nc(c(-c5ccccc5)c5ccc2[nH]5)C=C4)C=C3)cc1` [ATPP, 5-(4-aminophenyl)-10,15,20-(triphenyl)porphyrin, reference compound], in data set [1] (Table S1), the “ΦΔ value (in words)” value is recorded as “low ΦΔ value”. In addition, in the data set on MDA-MB-231 cells [3], the “phototoxicity (in words)” value is reported as “minimal PDT effect”. Besides, the “internalization in cells (in words)” value in the data set with MDA-MB-231 cells [4] is recorded as “high internalization”.

Regarding `CC(C)C[Si]12O[Si]3(CCCNC(=O)Nc4ccc(-c5c6nc(c(-c7ccccc7)c7ccc([nH]7)c(-c7ccccc7)c7nc(c(-c8ccccc8)c8ccc5[nH]8)C=C7)C=C6)cc4)O[Si]4(CC(C)C)O[Si](CC(C)C)(O1)O[Si]1(CC(C)C)O[Si](CC(C)C)(O2)O[Si](CC(C)C)(O3)O[Si](CC(C)C)(O4)O1` [POSSP 1], in data set [1], the “ΦΔ (1O2 quantum yield)” value is given as 0.82 ± 0.01. For the same molecule, the “ΦF (fluorescence quantum yield)” value in data set [2] (in THF) is recorded as 0.14 ± 0.01. Besides, the “reduction in cell proliferation” value in the data set with MDA-MB-231 cells [3] was 43 ± 4%. Moreover, in data set [5], the “log POW (in words)” value is recorded as “positive values”.

`C[N+](C)(C)CCC[Si]12O[Si]3(CCCNC(=O)c4ccc(-c5c6nc(c(-c7ccccc7)c7ccc([nH]7)c(-c7ccccc7)c7nc(c(-c8ccccc8)c8ccc5[nH]8)C=C7)C=C6)cc4)O[Si]4(CCC[N+](C)(C)C)O[Si](CCC[N+](C)(C)C)(O1)O[Si]1(CCC[N+](C)(C)C)O[Si](CCC[N+](C)(C)C)(O2)O[Si](CCC[N+](C)(C)C)(O3)O[Si](CCC[N+](C)(C)C)(O4)O1` [POSSP 5]: the “ΦΔ (1O2 quantum yield)” value in data set [1] is 0.66 ± 0.01. Further, in data set [2] (in DMSO), the “ΦF (fluorescence quantum yield)” value is recorded as 0.10 ± 0.01. For the same molecule, the “phototoxicity (in words)” value in the data set with MDA-MB-231 cells [3] is recorded as “did not show significant phototoxicity”. Further, in the data set on MDA-MB-231 cells [6], the “cytotoxicity at higher concentrations (in words)” value is on record as “structural properties of the molecule also play a role in its toxicity”. Also, in data set [5], the “log POW (in words)” value is “Negative log POW values”.

For the molecule `C1=Cc2nc1c(-c1ccccc1)c1nc(c(-c3ccccc3)c3ccc([nH]3)c(-c3ccccc3)c3ccc([nH]3)c2-c2ccccc2)C=C1` [TPP, 5,10,15,20-(tetraphenyl)porphyrin], the “ΦΔ (1O2 quantum yield) of reference” value in data set [7] is 0.62. Moreover, the “fluorescence quantum yield of reference” value in data set [8] is on record as 0.12.

On to `NCCC[Si]12O[Si]3(CCCN)O[Si]4(CCCN)O[Si](CCCN)(O1)O[Si]1(CCCN)O[Si](CCCN)(O2)O[Si](CCCN)(O3)O[Si](CCCNC(=O)c2ccc(-c3c5nc(c(-c6ccccc6)c6ccc([nH]6)c(-c6ccccc6)c6nc(c(-c7ccccc7)c7ccc3[nH]7)C=C6)C=C5)cc2)(O4)O1` [POSSP 4], for which the “ΦΔ (1O2 quantum yield)” value in data set [1] was determined as 0.70 ± 0.01. In addition, the “ΦF (fluorescence quantum yield)” value in data set [2] (in DMSO) came to 0.15 ± 0.01. For the same molecule, in the data set on MDA-MB-231 cells [3], the “reduction in cell proliferation” value worked out at 11 ± 2%. Besides, the “log POW (in words)” value in data set [5] is reported as “Negative log POW values”.
